Experimental data: patent US10113154B2, “Method for producing steviol glycoside” (SUNTORY HOLDINGS LIMITED, priority 2012, dated 2018)

Key:
[1] = system: UGT85C2 and UGT91D-like 3; test: Simultaneous reaction of UGT85C2 and UGT91D-like 3 (LC-MS analysis); assay type: biochemical, stevia; conditions: FIG. 4 panel 3
UGT85C2 = molecular target: T1, UGT85C2 (Stevia rebaudiana, UniProt Q6VAB0, A65S/E71Q/K220T); test: Assay for enzyme activity of UGT85C2 (glucosylation with UDP-glucose, LC-MS analysis); assay type: biochemical; conditions: 0.1 mM substrate, 2 mM UDP-glucose, pH 7.0, 30° C., one hour; FIG. 4 panel 1
T1 construct: The ORF fragment of about 1.4 kb from UGT85C2 was excised using the restriction enzyme sites of NdeI and BglII; made in house; host or cells: Escherichia coli BL21 (DE3)
T1 sequence (Q6VAB0 whole entry A65S/E71Q/K220T, the tested form may be a part): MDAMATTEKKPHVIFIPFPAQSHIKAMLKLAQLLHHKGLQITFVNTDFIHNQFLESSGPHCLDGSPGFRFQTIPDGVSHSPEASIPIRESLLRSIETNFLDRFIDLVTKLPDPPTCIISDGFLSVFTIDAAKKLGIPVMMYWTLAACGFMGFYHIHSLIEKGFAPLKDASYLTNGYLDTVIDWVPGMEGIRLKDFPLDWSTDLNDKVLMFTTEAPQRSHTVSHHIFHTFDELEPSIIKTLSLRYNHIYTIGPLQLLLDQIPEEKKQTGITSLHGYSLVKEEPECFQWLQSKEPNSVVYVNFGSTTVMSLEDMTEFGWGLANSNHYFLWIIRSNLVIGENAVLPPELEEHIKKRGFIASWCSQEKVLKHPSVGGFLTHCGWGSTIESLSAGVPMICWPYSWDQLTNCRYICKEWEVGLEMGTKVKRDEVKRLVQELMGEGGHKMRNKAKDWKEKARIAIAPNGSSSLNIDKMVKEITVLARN
Procedure: Standard conditions for the enzyme reaction were as follows. A reaction solution (2 mM UDP-glucose, 0.1 mM glycosyl acceptor substrate (steviol), 100 mM potassium phosphate buffer (pH 7.0) and 25 μl of purified UGT85C2 enzyme solution) was prepared in distilled water to become 50 μl, and reacted at 30° C. for an hour. The LC-MS analysis was performed for 5 μl of the enzyme reaction solution under the following conditions.
Column: Waters Sunfire C18 3.5 um 2.0 mm I.D.×20 mm
Moving phase: A: MilliQ Water (+0.05% formic acid), B: MeCN
Gradient: linear gradient of B from 15% to 55% (20 mins.)

[2] = molecular target: T2, UGT85C2 and UGT91D-like 3 (Stevia rebaudiana, UniProt Q6VAB0, A65S/E71Q/K220T); test: Simultaneous reaction of UGT85C2 and UGT91D-like 3 (LC-MS analysis); assay type: biochemical; conditions: concluded from simultaneous reaction, FIG. 4 panel 3
T2 construct: The ORF fragment of about 1.4 kb from UGT85C2 was excised using the restriction enzyme sites of NdeI and BglII; made in house; host or cells: Escherichia coli BL21 (DE3), stated for UGT85C2 only
T2 sequence (Q6VAB0 whole entry A65S/E71Q/K220T, the tested form may be a part): as above

| Structure (SMILES) | products formed by simultaneous reaction of UGT85C2 and UGT91D-like 3 [1] | glucosylation of the carboxyl at C19-position by UGT85C2, product additionally formed (UGT85C2) | glucosylation of the hydroxyl at C-13 position by UGT85C2, product formed (UGT85C2) | glucosylation of the carboxyl at C19-position by UGT85C2 protein [2] |
| --- | --- | --- | --- | --- |
| C=C1C[C@@]23CC[C@H]4[C@@](C)(CCC[C@@]4(C)C(=O)O)[C@@H]2CC[C@]1(O)C3 [steviol] | steviolbioside (FIG. 4: panel 3: peak C) and stevioside (FIG. 4: panel 3: peak E) were formed | rubusoside (FIG. 4: panel 1: peak D) with the carboxyl at C19-position being glucosylated was additionally formed | glucosylated (FIG. 4, panel 1: peak A) to form steviolmonoside |  |
| C=C1C[C@@]23CC[C@H]4[C@@](C)(CCC[C@@]4(C)C(=O)O)[C@@H]2CC[C@]1(O[C@@H]1O[C@H](CO)[C@@H](O)[C@H](O)[C@H]1O[C@@H]1O[C@H](CO)[C@@H](O)[C@H](O)[C@H]1O)C3 [steviolbioside] |  |  |  | glucosylates the carboxyl at C19-position of steviolbioside |
